Results on one compound are retold here after patent publication EP1658050B1, “SELF-NANOEMULSIFYING OILY FORMULATION FOR THE ADMINISTRATION OF POORLY WATER-SOLUBLE DRUGS” (Novagali Pharma S.A., priority 2003, dated 2005).

A short description of series [1]: Pharmacokinetic study of oral paclitaxel emulsions after cyclosporin A oral pretreatment (paclitaxel plasma levels by HPLC-UV). Particulars: intravenous 10 mg/kg paclitaxel; with versus without 10 mg/kg oral CsA; wild-type mice. The class given is in vivo, FVB Wild-type mice.
Method: Strains: FVB Wild-type mice Source: Breeding stocks of the animal facility of the Netherlands Kancer Institute (NKI) Age: 8-14 weeks Body weight: 18-30 gram Gender: Female Housing: Animal Department of the NKI
Cyclosporin A (Sandimmun®) was diluted 1:25 in water for injection to yield a final concentration of 2 mg/mL. A volume of 5 µL per gram body weight was administered to the animals resulting in a dose of 10 mg/kg of cyclosporin A.
Each cohort through 1 to 3 consisted of 20 Wild-type mice and cohorts.
Cohorts 4 and 5 are reference groups for the calculation of the bioavailability and consisted of 24 animals per cohort.
Oral drug administrations was done by stainless steel gavage using a glass syringe (250 µl: Hamilton luer tip) or a disposable polypropylene syringe (1 ml). The gavage was inserted via the oesophagus into the stomach.
Intravenous drug administrations were done by injection into the tail vein using a disposable polypropylene syringe (300 µl) provided with fixed 29 g needle. […]
Plasma concentration data were reported. Plasma concentrations versus time curves were fitted using the MEDI\WARE software package (version 3.0) and pharmacokinetic parameters: Area under the plasma concentration-time curve (AUC), Maximum plasma level (Cmax), Elimination half-life (t1/2) and Biological availability (F) were calculated.
For series [2] the following is noted: humans; after oral paclitaxel administration; cited from earlier work.

On to `CC(=O)O[C@H]1C(=O)[C@@]2(C)[C@H]([C@H](OC(=O)c3ccccc3)[C@]3(O)C[C@H](OC(=O)[C@H](O)[C@@H](NC(=O)c4ccccc4)c4ccccc4)C(C)=C1C3(C)C)[C@]1(OC(C)=O)CO[C@@H]1C[C@@H]2O` [paclitaxel, Paclitaxel], for which the “increase of intravenously administered paclitaxel AUC by oral pre-treatment with cyclosporin A” value in series [1] was 2.35 fold. Moreover, the systemic bioavailability entry in series [2] is recorded as “less than 6%”.
